Measured values as given in patent EP0007672A1, “Isocyanoalkenes, process and useful intermediates for their preparation, pharmaceutical and fungicidal preparations containing those isocyanoalkenes and the use of the fungicidal preparations in agriculture” (GIST-BROCADES N.V., priority 1978, dated 1980).
Values after ≈ are worked out from the molar mass of the structure shown. Read-outs that look alike come from different tables or passages of the source.

Experiments:
Assay in all cases: MIC (Minimum Inhibitory Concentration)
Assay type in all cases: cell-based
[1] = test system: Trichophyton soudanese joyeux; conditions: read-out: MIC values
Trichophyton equinum = test system: Trichophyton equinum
[2] = test system: Trichophyton mentagrophytus
[3] = test system: Trichophyton schoenleinii; conditions: read-out: MIC values
[4] = test system: Streptococcus haemolyticus; conditions: read-out: MIC values
Pasteurella multocida = conditions: read-out: MIC values
Trichophyton verrucosum = test system: Trichophyton verrucosum
Trichophyton rubrum = test system: Trichophyton rubrum
Trichophyton quickeaneum = conditions: Trichophyton, read-out: MIC values
Candida albicans = test system: Candida albicans
Trichophyton violoceum = conditions: read-out: MIC values
Trichophyton tonsurans = Trichophyton tonsurans 561-50; read-out: MIC values

## [C-]#[N+]C(=C1C2CC3CC(C2)CC1C3)S(=O)(=O)c1ccc(C)cc1 [Example 2, a-adamantylidene-a-(4-toluenesulphonyl) methylisocyanide]
[1]; Trichophyton
  MIC: 50 µg/mL (≈ 153 µM)
Trichophyton equinum; read-out: MIC values, Trichophyton equinum 182-76
  MIC: 50 µg/mL (≈ 153 µM)
Trichophyton equinum; read-out: MIC values, Trichophyton equinum 441-51
  MIC: 25 µg/mL (≈ 76.3 µM)
Trichophyton equinum; read-out: MIC values, Trichophyton equinum 856-71
  MIC: > 100 µg/mL
[2]; read-out: MIC values, Trichophyton mentagrophytus 367-68
  MIC: > 100 µg/mL
[2]; read-out: MIC values, Trichophyton mentagrophytus 421-67
  MIC: 50 µg/mL (≈ 153 µM)
[2]; read-out: MIC values, Trichophyton mentagrophytus A 3252
  MIC: > 100 µg/mL
[2]; read-out: MIC values, Trichophyton mentagrophytus R 177
  MIC: 100 µg/mL (≈ 305 µM)
[2]; read-out: MIC values, Trichophyton mentagrophytus R 178
  MIC: > 100 µg/mL
[2]; read-out: MIC values, Trichophyton mentagrophytus RRL 305
  MIC: 50 µg/mL (≈ 153 µM)
[3]; Trichophyton schoenleinii
  MIC: 25 µg/mL (≈ 76.3 µM)
[4]; Streptococcus
  MIC: 50 µg/mL (≈ 153 µM)
Pasteurella multocida; Pasteurella multocida
  MIC: > 100 µg/mL
Trichophyton verrucosum; read-out: MIC values, Trichophyton verrucosum 134-66
  MIC: 25 µg/mL (≈ 76.3 µM)
Trichophyton verrucosum; read-out: MIC values, Trichophyton verrucosum A 2922
  MIC: < 0.05 µg/mL
Trichophyton rubrum; read-out: MIC values, Trichophyton rubrum 218-65
  MIC: < 0.05 µg/mL
Trichophyton rubrum; read-out: MIC values, Trichophyton rubrum 494-62
  MIC: > 100 µg/mL
Trichophyton rubrum; read-out: MIC values, Trichophyton rubrum A 810
  MIC: 50 µg/mL (≈ 153 µM)
Trichophyton quickeaneum
  MIC: > 100 µg/mL
Candida albicans; read-out: MIC values, Candida albicans A 7
  MIC: 0.8 µg/mL (≈ 2.44 µM)
Candida albicans; read-out: MIC values, Candida albicans A 3140
  MIC: 12.5 µg/mL (≈ 38.2 µM)
Candida albicans; read-out: MIC values, Candida albicans A 3141
  MIC: > 100 µg/mL
Candida albicans; read-out: MIC values, Candida albicans A 3142
  MIC: > 100 µg/mL
Candida albicans; read-out: MIC values, Candida albicans A 3143
  MIC: 0.8 µg/mL (≈ 2.44 µM)
Candida albicans; read-out: MIC values, Candida albicans A 3144
  MIC: > 100 µg/mL
Candida albicans; read-out: MIC values, Candida albicans A 3145
  MIC: > 100 µg/mL
Candida albicans; read-out: MIC values, Candida albicans A 3165
  MIC: 50 µg/mL (≈ 153 µM)
Candida albicans; read-out: MIC values, Candida albicans A 3166
  MIC: 50 µg/mL (≈ 153 µM)
Candida albicans; read-out: MIC values, Candida albicans A 3167
  MIC: 25 µg/mL (≈ 76.3 µM)
Candida albicans; read-out: MIC values, Candida albicans A 3169
  MIC: 1.5 µg/mL (≈ 4.58 µM)
Candida albicans; read-out: MIC values, Candida albicans A 3171
  MIC: > 100 µg/mL
Candida albicans; read-out: MIC values, Candida albicans A 3184
  MIC: 0.8 µg/mL (≈ 2.44 µM)
Candida albicans; read-out: MIC values, Candida albicans A 3190
  MIC: 100 µg/mL (≈ 305 µM)
Candida albicans; read-out: MIC values, Candida albicans A 3192
  MIC: 1.5 µg/mL (≈ 4.58 µM)
Candida albicans; read-out: MIC values, Candida albicans A 3194
  MIC: > 100 µg/mL
Candida albicans; read-out: MIC values, Candida albicans A 3196
  MIC: > 100 µg/mL
Trichophyton violoceum; Trichophyton
  MIC: 50 µg/mL (≈ 153 µM)

## [C-]#[N+]C(=C(C)c1ccc([N+](=O)[O-])cc1)S(=O)(=O)c1ccc(C)cc1 [Example 22, 1-isocyano-2-(4-nitrophenyl)-1-(4-toluenesulphonyl)-1-propene]
[1]; Trichophyton soudanese joyeux 440-63
  MIC: 3 µg/mL (≈ 8.76 µM)
Trichophyton equinum; Trichophyton equinum 441-51, read-out: MIC values
  MIC: 1.5 µg/mL (≈ 4.38 µM)
Trichophyton equinum; Trichophyton equinum 856-71, read-out: MIC values
  MIC: 25 µg/mL (≈ 73 µM)
[2]; Trichophyton mentagrophytus 367-68, read-out: MIC values
  MIC: 3 µg/mL (≈ 8.76 µM)
[2]; Trichophyton mentagrophytus 421-67, read-out: MIC values
  MIC: 12.5 µg/mL (≈ 36.5 µM)
[2]; Trichophyton mentagrophytus A 3252, read-out: MIC values
  MIC: 12.5 µg/mL (≈ 36.5 µM)
[2]; Trichophyton mentagrophytus R 177, read-out: MIC values
  MIC: 6 µg/mL (≈ 17.5 µM)
[2]; Trichophyton mentagrophytus R 178, read-out: MIC values
  MIC: 6 µg/mL (≈ 17.5 µM)
[2]; Trichophyton mentagrophytus RRL 305, read-out: MIC values
  MIC: 6 µg/mL (≈ 17.5 µM)
[3]; Trichophyton schoenleinii 435-63
  MIC: 3 µg/mL (≈ 8.76 µM)
Trichophyton tonsurans
  MIC: 1.5 µg/mL (≈ 4.38 µM)
[4]; Streptococcus haemolyticus A 1088
  MIC: 0.8 µg/mL (≈ 2.34 µM)
Pasteurella multocida; Pasteurella multocida A 723
  MIC: 6 µg/mL (≈ 17.5 µM)
Trichophyton verrucosum; Trichophyton verrucosum 134-66, read-out: MIC values
  MIC: 1.5 µg/mL (≈ 4.38 µM)
Trichophyton rubrum; Trichophyton rubrum 218-65, read-out: MIC values
  MIC: 3 µg/mL (≈ 8.76 µM)
Trichophyton rubrum; Trichophyton rubrum 494-62, read-out: MIC values
  MIC: 6 µg/mL (≈ 17.5 µM)
Trichophyton rubrum; Trichophyton rubrum A 810, read-out: MIC values
  MIC: 3 µg/mL (≈ 8.76 µM)
Candida albicans; Candida albicans A 7, read-out: MIC values
  MIC: 1.5 µg/mL (≈ 4.38 µM)
Candida albicans; Candida albicans A 3140, read-out: MIC values
  MIC: 3 µg/mL (≈ 8.76 µM)
Candida albicans; Candida albicans A 3141, read-out: MIC values
  MIC: 3 µg/mL (≈ 8.76 µM)
Candida albicans; Candida albicans A 3142, read-out: MIC values
  MIC: 3 µg/mL (≈ 8.76 µM)
Candida albicans; Candida albicans A 3143, read-out: MIC values
  MIC: 1.5 µg/mL (≈ 4.38 µM)
Candida albicans; Candida albicans A 3144, read-out: MIC values
  MIC: 3 µg/mL (≈ 8.76 µM)
Candida albicans; Candida albicans A 3145, read-out: MIC values
  MIC: 3 µg/mL (≈ 8.76 µM)
Candida albicans; Candida albicans A 3165, read-out: MIC values
  MIC: 3 µg/mL (≈ 8.76 µM)
Candida albicans; Candida albicans A 3166, read-out: MIC values
  MIC: 1.5 µg/mL (≈ 4.38 µM)
Candida albicans; Candida albicans A 3167, read-out: MIC values
  MIC: 1.5 µg/mL (≈ 4.38 µM)
Candida albicans; Candida albicans A 3168, read-out: MIC values
  MIC: 3 µg/mL (≈ 8.76 µM)
Candida albicans; Candida albicans A 3169, read-out: MIC values
  MIC: 3 µg/mL (≈ 8.76 µM)
Candida albicans; Candida albicans A 3171, read-out: MIC values
  MIC: 3 µg/mL (≈ 8.76 µM)
Candida albicans; Candida albicans A 3184, read-out: MIC values
  MIC: 1.5 µg/mL (≈ 4.38 µM)
Candida albicans; Candida albicans A 3190, read-out: MIC values
  MIC: 3 µg/mL (≈ 8.76 µM)
Candida albicans; Candida albicans A 3191, read-out: MIC values
  MIC: 3 µg/mL (≈ 8.76 µM)
Candida albicans; Candida albicans A 3192, read-out: MIC values
  MIC: 3 µg/mL (≈ 8.76 µM)
Candida albicans; Candida albicans A 3194, read-out: MIC values
  MIC: 1.5 µg/mL (≈ 4.38 µM)
Candida albicans; Candida albicans A 3196, read-out: MIC values
  MIC: 3 µg/mL (≈ 8.76 µM)
Trichophyton violoceum; Trichophyton violoceum 442-62
  MIC: 3 µg/mL (≈ 8.76 µM)
